These results are taken from patent US20170000804A1, “Methods and Compositions for Inhibiting Mitochondrial Trafficking” (The Wistar Institute of Anatomy and Biology, priority 2015, published 2017).

In experiment [1] the test system is PC3 cells. As to the kind of experiment: Tumor cell invasion across Matrigel-coated Transwell inserts. It counts as cell-based, human. The settings on record: for effect on tumor cell invasion in the presence of PI3K therapy: with PX-866, Matrigel, Antimycin A 30 μM, Oligomycin 2.5 μM, Rotenone 4 μM, CCCP 12.5 μM. The protocol:
Tumor cell invasion: Experiments were carried out essentially as described (41). Briefly, 8 μm PET transwell migration chambers (Corning) were coated with 150 μl of 80 μg/ml Matrigel (Becton Dickinson). Tumor cells were seeded in duplicates onto the coated transwell filters at a density of 1.25×10^5 cells/well in media containing 2% FCS (FCIII, Hyclone) and media containing 20% FCS was placed in the lower chamber as chemoattractant. Cells were allowed to invade and adhere to the bottom of the plate stained in 0.5% crystal violet/methanol for 10 min, rinsed in tap water and analyzed by bright field microscopy. Digital images were batch imported into ImageJ, thresholded and analyzed with the Analyze particles function. For analysis of tumor cell invasion in 3D spheroids, tissue culture-treated 96-well plates were coated with 50 μl 1% DIFCO Agar Noble (Becton Dickinson). LN229 cells were seeded at 5,000 cells/well and allowed to form spheroids over 72 h. Spheroids were harvested, treated with PX-866 (0-10 µM) and placed in a collagen plug containing EMEM, FBS, L-Glutamine, sodium bicarbonate, and collagen type I (Gibco, 1.5 mg/ml). The collagen plug was allowed to set and 1 ml DMEM with 5% FBS was added to the top of the plug. Cell invasion was analyzed every 24 h and quantified using Image Pro Plus 7, as described^41.
Cell culture and drug treatment: Human GBM LN229, prostate adenocarcinoma PC3, lung carcinoma A549, and mouse fibroblasts NIH3T3 cells were obtained from the American Type Culture Collection (ATCC, Manassas, Va.), and maintained in culture according to the supplier's specifications. Conditioned media was prepared from exponentially growing cultures of NIH3T3 cells as previously described^41, in DMEM supplemented with 4.5 g/l D-glucose, sodium pyruvate, 10 mM HEPES and 10% FBS for 48 h. Where indicated, starvation was carried out in DMEM without glucose for 24 h. PI3K inhibitors were dissolved in DMSO at 10 mM and added to the culture media for 48 h at the following concentrations: AZD6482 at 10 μM, GCD0941 at 2 μM, BKM120 at 0.4 μM and PX-866 at 5 μM. mitoTEMPO was added to the culture media at 50-100 μM, NAC at […], Antimycin A at 30 μM, Oligomycin at 2.5 μM, Rotenone at 4 μM and CCCP at 12.5 μM. For invasions, the antioxidants, ROS scavengers, and ETC inhibitors were added to the top and bottom of the chambers at the moment of cell seeding.

For experiment [2], the system named is PC3 cells. Kind of experiment: Mitochondrial localization by fluorescence microscopy. It counts as cell-based, human. The note with it: for effect on mitochondrial repositioning to the cortical cytoskeleton in the presence of PI3K therapy: with PX-866, Antimycin A 30 μM, Oligomycin 2.5 μM, Rotenone 4 μM, CCCP 12.5 μM. As for the experimental part:
Mitochondrial localization. After the indicated transfections or treatments, cells were stained with MitoTracker Red CMXRos (100 nM, 2 h) at 37° C. After fixation with 4% formalin in PBS for 15 min at room temperature, cells were permeabilized with 0.1% Triton X-100/PBS for 5 min, washed, and incubated 30 min with 1% BSA/0.3M glycine/PBS. F-actin was stained with phalloidin Alexa488 (1:1000 dilution) for 30 min at room temperature. Slides were washed and mounted in DAPI-containing Prolong Gold mounting medium (Invitrogen). At least 7 random fields were analyzed by fluorescence microscopy in a Nikon E600 microscope. Composite images were analyzed in Image J, for each cell two lamellipodia were measured to calculate infiltration index, defined as the radial distance from nucleus to furthest mitochondrial string, normalized to the radial distance from nucleus to cell border. In parallel, all cells on the 7 fields were scored into 3 categories, according to gross localization of mitochondria: polarized, pen-nuclear, and infiltrating. For cortical mitochondria quantification, a mask was manually created around the periphery of the cell based on the F-actin channel and subsequently applied to the mitochondria channel to measure intensity at the cortical region (FIG. 8H). The intensity was normalized to total mitochondria intensity per cell and background subtracted. A minimum of 20 cells were analyzed in each independent experiment to obtain mean values. For high resolution imaging of mitochondria in MFN1-depleted cells, slides were sequentially scanned for red, green, and blue fluorescence by a Leica SP5 confocal microscope with a 63× objective and a 20× digital zoom. Full cell z stacks (about 5-8 μm) were postprocessed in Leica Application Suite Advanced Fluorescence (LAS AF) to reduce noise by applying a median filter (two iterations, radius 3) and used to generate max projections.

Experiment [3] has as its system patient-derived GBM neurospheres. As to the kind of experiment: GBM neurosphere formation (number and size). It counts as cell-based, human. The note with it: Gamitrinib 5 μM plus PX-866 10 μM, 48 h. As for the experimental part: GBM neurospheres: Fresh GBM specimens collected from consenting patients (Division of Neurosurgery, Fondazione IRCCS Ca′ Granda, Milan, Italy) were immediately processed for the isolation of stem cell-containing neurospheres. Briefly, tissues were enzymatically processed with the Tumor Dissociation Kit (Miltenyi Biotech) at 37° C. in combination with the gentleMACS™ Dissociators (Miltenyi Biotech) until achievement of single cell suspension. Then, dissociated GBM cells were grown as spheroid aggregates (neurospheres) as previously described^43 and using the NeuroCult NS-A Proliferation media (StemCell Technologies) supplemented with 20 ng/ml EGF and 10 ng/ml bFGF (Stem Cell Technologies) according to manufacturer's protocol. When pharmacological treatment was performed, neurospheres derived from five GBM patients were mechanically dissociated, stained with PKH26 (Sigma Aldrich) as described^44, and plated at a density of 1000 cells per well in 24-well plates. The intended use of the non-toxic dye PKH26 was for live cell identification and staining. […] During this interval, neurospheres were imaged every 24 h and their size (diameter) and number was assessed by direct counting using ImageJ software. PKH26 was monitored and recorded using the TRITC fluorescent filter. Experiments were performed in duplicates. […]

Experiment [4] concerns PC3 cells. As to the kind of experiment: Focal adhesion (FA) complexes and mitochondria dual labeling. It counts as cell-based, human. The settings on record: non-toxic concentrations of Gamitrinib (1 μM), 48 h. As for the experimental part: Focal adhesion (FA) complexes and mitochondria dual labeling. Coverslides were coated with fibronectin (10 μg/ml in PBS) overnight at 4° C., rinsed in PBS and equilibrated at 37° C. with 500 μl of 10% FBS/RPMI. Cells were treated as indicated, tripsinized, washed with 10% FBS/RPMI and plated on fibronectin-coated slides, in the presence of Mitotracker Red CMXRos (100 nM). After 5 h, cells were fixed with 10% formalin in PBS for 15 min at room temperature, permeabilized with 0.1% Triton X-100/PBS for 5 min, washed, and FAs were labeled with primary antibodies diluted in 1% BSA/0.3M glycine/PBS, overnight at 4° C. Either one of the following antibodies were used: rabbit anti-pY925-FAK (1:50, Cell Signaling), mouse anti-Paxillin (1:100, Upstate). Next, slides were washed, incubated with secondary antibodies (1:500, Alexa Fluor 488 conjugated) for 1 h at room temperature, washed and mounted in DAPI-containing Prolong Gold mounting medium (Invitrogen). Slides were sequentially scanned for red, green and blue fluorescence in a Leica SP5 confocal microscope with a 100× objective. Libraries were imported into LASLite and a 3 step z-stack centered at the plane of focal adhesions (±0.5 μm) were used to generate 3D max projections.

Experiment [5] concerns patient-derived glioblastoma (GBM) organotypic cultures. As to the kind of experiment: Kinome profiling (OpenArray real-time PCR) of GBM organotypic cultures. Type of experiment: cell-based, human. The settings on record: PX-866 10 μM for 48 h vs vehicle. As for the experimental part:
(§1) Organotypic cultures: Short-term organotypic cultures from primary patient samples were established as described^13. Briefly, precise thick tissue slices (300 μm) were obtained by vibratome serial cutting (VT1200, Leica Microsystems, Milan, Italy), and cultured in six-well plates on organotypic inserts (Millicell PICM ORG, Merck Millipore) for up to 48 h in 1 ml of Ham-F12 complete medium supplemented with vehicle (DMSO, 2.5 μl) or pan-PI3K inhibitor […] (10 μM). At the end of the experiment, one tissue slice per condition was formalin-fixed and paraffin-embedded, and further processed for morphological and immunohistochemical analysis. An additional tissue slice was embedded in OCT, and snap-frozen for molecular or immunofluorescence studies.
Kinome profiling and bioinformatics analysis. Transcriptional changes in the human kinome following PI3K inhibition were analyzed using OpenArray real-time PCR amplification. […] The ΔΔCt method was used to calculate fold changes between sample pairs with endogenous control Ct value calculated as average among 15 endogenous controls on the array: ALAS1, B2M, CASC3, G6PD, GAPDH, GUSB, HMBS, HPRT1, IPO8, POLR2A, PPIA, RPLP0, TFRC, UBE2D2, and YWHAZ. The p values for differential expression were calculated using fold changes of 15 endogenous controls as a null distribution.

For the next experiment, the system named is GBM organotypic cultures. Kind of experiment: Human phospho-RTK array, GBM organotypic cultures. Type of experiment: cell-based. The settings on record: primary organotypic cultures, PX-866 10 μM for 48 h. As for the experimental part: (§2) The position and identity of phosphorylated proteins are indicated. M, markers.
as §1

A further experiment concerns GBM LN229 cells. As to the kind of experiment: Human phospho-RTK array, LN229 cells. It counts as cell-based. The settings on record: PX-866 10 μM for 48 h.
From the text: as §2

Experiment [6] concerns PC3 cells. Kind of experiment: Detection of mitochondrial superoxide in live cells (MitoSOX Red). Type of experiment: cell-based, human. The note with it: PX-866 48 h with mitoTEMPO. The protocol: Detection of mitochondrial superoxide in live cells. The production of superoxide by mitochondria was visualized in fluorescence microscopy using the MitoSOX™ Red reagent. Briefly, 1.5×10^4 cells were grown on high optical quality 8 well μ-slides (Ibidi) and imaged with a 40× objective on a Nikon TE300 inverted time-lapse microscope equipped with a video system containing an Evolution QEi camera and a time-lapse video cassette recorder. The atmosphere was equilibrated to 37° C. and 5% CO2 in an incubation chamber. Phase contrast and TRITC (TRITC filter cube, excitation wavelength: 532-554 nm, emission wavelength: 570-613 nm) images were captured. To quantitate superoxide levels, files were imported into Image J, masks were manually created around the periphery of the cell based on the Phase image and subsequently applied to the TRITC channel to measure intensity. A minimum of 100 cells were analyzed in each independent experiment to obtain mean values.

For “carbonyl cyanide m-chlorophenyl hydrazine [CCCP]”, the “effect on tumor cell invasion in the presence of PI3K therapy” value in the experiment with PC3 cells [1] is on record as “inhibited”. Further, the “effect on mitochondrial repositioning to the cortical cytoskeleton in the presence of PI3K therapy” value in the experiment with PC3 cells [2] is listed as “inhibited”.

Take Gamitrinib: the “effect on increase in tumor cell invasion mediated by PI3K antagonists” value with PC3 cells [1] (Gamitrinib with PX-866 5 μM, Matrigel) is reported as “abolished the increase”. The “effect on expansion of primary GBM neurospheres mediated by PI3K antagonists” value in experiment [3] is listed as “abolished”. For the same compound, in the experiment on PC3 cells [2] (Gamitrinib in combination with PI3K inhibitors), the “mitochondrial distribution (polarized, perinuclear, infiltrating) with PI3K inhibitors” value is “preserved a polarized and perinuclear mitochondrial distribution”. Besides, in the experiment on PC3 cells [4], the “effect on trafficking of mitochondria to pFAK-containing FA complexes in response to PI3K antagonists” value was “abolished”.

`CC[C@H]1/C=C/C=C/C[C@@H](C)[C@H](O)[C@@](C)(O)C(=O)[C@@H](C)[C@H](O)[C@@H](C)C(=O)[C@@H](C)[C@H](O)[C@@H](C)/C=C/C(=O)O[C@@H]2[C@H](C)[C@H](CC1)O[C@]1(CC[C@H](C)[C@H](C[C@@H](C)O)O1)[C@H]2C` [Oligomycin]: the “effect on tumor cell invasion in the presence of PI3K therapy” value with PC3 cells [1] is “inhibited”. Also, the “effect on mitochondrial repositioning to the cortical cytoskeleton in the presence of PI3K therapy” value in the experiment on PC3 cells [2] is recorded as “inhibited”.

In the case of `C=CCN(/C=C1/C(=O)O[C@H](COC)[C@@]2(C)C1=C(O)C(=O)C1=C2[C@H](OC(C)=O)C[C@]2(C)C(=O)CC[C@@H]12)CC=C` [PX-866], in experiment [5], the “transcriptional changes of growth factor receptor pathways (kinome)” value was “transcriptional upregulation of multiple growth factor receptor pathways”. Moreover, the “phosphorylation, i.e. activation of the GBM kinome” value in the experiment on GBM organotypic cultures and in the experiment with GBM LN229 cells was “widespread phosphorylation” throughout.

Take `C=C(C)[C@H]1Cc2c(ccc3c2O[C@@H]2COc4cc(OC)c(OC)cc4[C@@H]2C3=O)O1` [Rotenone]: the “effect on tumor cell invasion in the presence of PI3K therapy” value in the experiment with PC3 cells [1] is reported as “inhibited”. The “effect on mitochondrial repositioning to the cortical cytoskeleton in the presence of PI3K therapy” value with PC3 cells [2] is reported as “inhibited”.

In the case of Antimycin A, the “effect on tumor cell invasion in the presence of PI3K therapy” value in the experiment with PC3 cells [1] was “inhibited”. In addition, in the experiment with PC3 cells [2], the “effect on mitochondrial repositioning to the cortical cytoskeleton in the presence of PI3K therapy” value is listed as “inhibited”.

As to `CC1(C)CC(NC(=O)C[P+](c2ccccc2)(c2ccccc2)c2ccccc2)CC(C)(C)N1[O]` [mitoTEMPO], the “effect on tumor cell invasion mediated by PI3K inhibitors” value in the experiment with PC3 cells [1] (mitoTEMPO with PX-866, Matrigel) is given as “did not affect”. Moreover, the “effect on mitochondrial repositioning to the cortical cytoskeleton mediated by PI3K inhibitors” value with PC3 cells [2] (mitoTEMPO 50 μM with PI3K inhibitors) was “did not affect”. In addition, the “effect on PI3K antagonist-induced mitochondrial superoxide production” value in the experiment on PC3 cells [6] is “abolished”.

Regarding `CC(=O)N[C@@H](CS)C(=O)O` [NAC, N-acetyl cysteine], the “effect on PI3K therapy-mediated tumor cell invasion” value in the experiment on PC3 cells [1] (increasing concentrations of NAC with PX-866 48 h, Matrigel) is given as “had no effect”.
